Earlier results in patent US20250205506A1, “Treatment of viral infection” (priority 2023, published 2025).

Key:
herpes infections = settings: orally administered; red light from a HeNe laser
[1] = system: recurrent herpes labialis; settings: for Reduction of healing time: tablets, otherwise healthy people
herpes zoster = settings: intravenously administered; golden light (565 nm yellow + 630 nm red) or red light to the affected area

Q: For `Nc1nc2c(ncn2COCCO)c(=O)[nH]1` [acyclovir, 9-(2-hydroxyethoxymethyl) guanine], which “Combined effect with red light compared to acyclovir alone” value (herpes infections) is on record?
A: improvements over acyclovir alone

Q: What about the “Reduction of healing time” value [1] of the same compound?
A: reduce healing time by about one day

Q: What about the “Combined effect with light compared to acyclovir alone” value (herpes zoster) of the same compound?
A: improvement over acyclovir alone

Q: Which results are given for `CC(C)[C@H](N)C(=O)OCCOCn1cnc2c(=O)[nH]c(N)nc21` [valacyclovir]?
A: Reduction of healing time [1]: reduce healing time by about one day; Preventative treatment of herpes ([1]; taken once daily): effective preventative treatment for herpes reducing frequency and severity of outbreaks

Q: With `CC(=O)OCC(CCn1cnc2cnc(N)nc21)COC(C)=O` [famciclovir] as the compound, how does the “Reduction of healing time” value [1] read?
A: reduce healing time by about one day
